Test results reported in patent publication US5534508A, “Cephem compounds and antimicrobial agents” (Katayama Seiyakusyo Co., Ltd., priority 1993, dated 1996).
Converted amounts (≈) assume the structure as drawn.

Key:
Type in all cases: cell-based
P. aeruginosa AKR17 = assay: MIC against standard strains (Table 1), P. aeruginosa AKR17; conditions: Pseudomonas aeruginosa, Muller-Hinton agar, overnight 37° C., read-out: MIC (minimum growth inhibitory concentration)
Method: (§1) The minimum growth inhibitory concentration (MIC, μg/ml) of the compounds for each of the 25 standard laboratory strains (standard strains) shown in Table 1 was determined in accordance with the standard method of the Japan Chemotherapical Society (Chemotherapy, 29, 76-79 (1981) under "Re-revision of the measuring methods of minimum growth inhibitory concentration (MIC)").
(§2) That is, by using each test strain cultured overnight at 37° C. in a Muller-Hinton broth, there was prepared a bacterial solution with a cell density of 1×10^6 CFU/ml in the same broth. The bacterial solution was inoculated into the Muller-Hinton agar media each containing respectively one test agent (i.e., compound) and, after overnight incubation at 37° C., the minimum concentration that inhibited growth of the bacteria was determined and expressed as MIC.
(§3) Staphylococcus aureus 167 and Staphylococcus aureus 195 used in the test were MRSA. CTM (cefotiam) and FMOX (flomoxef) were used as the control agents.

S. marcescens No. 16-2 = assay: MIC against standard strains (Table 1), S. marcescens No. 16-2; conditions: Serratia marcescens, NO.162, Muller-Hinton agar, overnight 37° C., read-out: MIC (minimum growth inhibitory concentration)
Method: as §1, §2, §3

P. mirabilis IFO 3849 = assay: MIC against standard strains (Table 1), P. mirabilis IFO 3849; conditions: Proteus mirabilis, IFO3849, Muller-Hinton agar, overnight 37° C., read-out: MIC (minimum growth inhibitory concentration)
Method: as §1, §2, §3

M. morganii IFO 3848 = assay: MIC against standard strains (Table 1), M. morganii IFO 3848; conditions: Morganella morganii, IFO3848, Muller-Hinton agar, overnight 37° C., read-out: MIC (minimum growth inhibitory concentration)
Method: as §1, §2, §3

P. vulugaris OX-19 = assay: MIC against standard strains (Table 1), P. vulugaris OX-19; conditions: Muller-Hinton agar, overnight 37° C., read-out: MIC (minimum growth inhibitory concentration)
Method: as §1, §2, §3

S. aureus 167 = assay: MIC against standard strains (Table 1), S. aureus 167 (MRSA); conditions: Staphylococcus aureus, Muller-Hinton agar, overnight 37° C., read-out: MIC (minimum growth inhibitory concentration)
Method: as §1, §2, §3

E. cloacae Nek39 = assay: MIC against standard strains (Table 1), E. cloacae Nek39; conditions: Enterobacter cloacae, Muller-Hinton agar, overnight 37° C., read-out: MIC (minimum growth inhibitory concentration)
Method: as §1, §2, §3

C. freundii ATCC 8090 = assay: MIC against standard strains (Table 1), C. freundii ATCC 8090; conditions: Citrobacter freundii, ATCC8090, Muller-Hinton agar, overnight 37° C., read-out: MIC (minimum growth inhibitory concentration)
Method: as §1, §2, §3

A. faecalis ATCC 3750 = assay: MIC against standard strains (Table 1), A. faecalis ATCC 3750; conditions: Alcaligenes faecalis, ATCC3750, Muller-Hinton agar, overnight 37° C., read-out: MIC (minimum growth inhibitory concentration)
Method: as §1, §2, §3

E. cloacae ATCC 13407 = assay: MIC against standard strains (Table 1), E. cloacae ATCC 13407; conditions: Enterobacter cloacae, ATCC13407, Muller-Hinton agar, overnight 37° C., read-out: MIC (minimum growth inhibitory concentration)
Method: as §1, §2, §3

M. luteus ATCC 9341 = assay: MIC against standard strains (Table 1), M. luteus ATCC 9341; conditions: Micrococcus luteus, ATCC9341, Muller-Hinton agar, overnight 37° C., read-out: MIC (minimum growth inhibitory concentration)
Method: as §1, §2, §3

A. calcoaceticos T59 = assay: MIC against standard strains (Table 1), A. calcoaceticos T59; conditions: Muller-Hinton agar, overnight 37° C., read-out: MIC (minimum growth inhibitory concentration)
Method: as §1, §2, §3

clinically isolated MRSA = assay: Antibacterial potency against clinically isolated MRSA (47 strains); conditions: Staphylococcus aureus; for MIC50: concentration inhibiting growth of 50% of 47 clinically isolated MRSA strains; for MIC90: concentration inhibiting growth of 90% of 47 clinically isolated MRSA strains
Method: A test on the antibacterial potency against clinically isolated MRSA was conducted in the following way.
That is, using 47 strains of clinically isolated MRSA, MIC was determined for each of the test strains in accordance with the standard method of the Japan Chemotherapical Society as in Test Example 1, and the minimum growth inhibitory concentration which inhibited growth of 50% of the strains tested was expressed as MIC50 (μg/ml), and the minimum growth inhibitory concentration which inhibited growth of 90% of the strains tested was expressed as MIC90 (μg/ml).
In this test, FMOX was used as the control agent.

B. subtilis ATCC 6633 = assay: MIC against standard strains (Table 1), B. subtilis ATCC 6633; conditions: Bacillus subtilis, ATCC6633, Muller-Hinton agar, overnight 37° C., read-out: MIC (minimum growth inhibitory concentration)
Method: as §1, §2, §3

E. coli CSH2(RK1) = assay: MIC against standard strains (Table 1), E. coli CSH2(RK1); conditions: Escherichia coli, read-out: MIC (minimum growth inhibitory concentration)
Method: as §1, §2, §3

K. pneuminiae IFO 3317 = assay: MIC against standard strains (Table 1), K. pneuminiae IFO 3317; conditions: Muller-Hinton agar, overnight 37° C., read-out: MIC (minimum growth inhibitory concentration)
Method: as §1, §2, §3

S. aureus 209p JC-1 = assay: MIC against standard strains (Table 1), S. aureus 209p JC-1; conditions: Staphylococcus aureus, Muller-Hinton agar, overnight 37° C., read-out: MIC (minimum growth inhibitory concentration)
Method: as §1, §2, §3

S. aureus 195 = assay: MIC against standard strains (Table 1), S. aureus 195 (MRSA); conditions: Staphylococcus aureus, Muller-Hinton agar, overnight 37° C., read-out: MIC (minimum growth inhibitory concentration)
Method: as §1, §2, §3

E. coli JC-2 = assay: MIC against standard strains (Table 1), E. coli JC-2; conditions: Escherichia coli, JC2, Muller-Hinton agar, overnight 37° C., read-out: MIC (minimum growth inhibitory concentration)
Method: as §1, §2, §3

S. marcescens IAM 1184 = assay: MIC against standard strains (Table 1), S. marcescens IAM 1184; conditions: Serratia marcescens, IAM1184, Muller-Hinton agar, overnight 37° C., read-out: MIC (minimum growth inhibitory concentration)
Method: as §1, §2, §3

S. aureus Smith = assay: MIC against standard strains (Table 1), S. aureus Smith; conditions: Staphylococcus aureus, Muller-Hinton agar, overnight 37° C., read-out: MIC (minimum growth inhibitory concentration)
Method: as §1, §2, §3

E. coli CSH2(RE45) = assay: MIC against standard strains (Table 1), E. coli CSH2(RE45); conditions: Escherichia coli, read-out: MIC (minimum growth inhibitory concentration)
Method: as §1, §2, §3

P. aeruginosa NCTC 10490 = assay: MIC against standard strains (Table 1), P. aeruginosa NCTC 10490; conditions: Pseudomonas aeruginosa, NCTC10490, Muller-Hinton agar, overnight 37° C., read-out: MIC (minimum growth inhibitory concentration)
Method: as §1, §2, §3

K. pneuminiae No. 42 = assay: MIC against standard strains (Table 1), K. pneuminiae No. 42; conditions: Muller-Hinton agar, overnight 37° C., read-out: MIC (minimum growth inhibitory concentration)
Method: as §1, §2, §3

S. epidemidis IAM 1296 = assay: MIC against standard strains (Table 1), S. epidemidis IAM 1296; conditions: Muller-Hinton agar, overnight 37° C., read-out: MIC (minimum growth inhibitory concentration)
Method: as §1, §2, §3

P. cepacia CN 9113 = assay: MIC against standard strains (Table 1), P. cepacia CN 9113; conditions: Burkholderia cepacia, CN9113, Muller-Hinton agar, overnight 37° C., read-out: MIC (minimum growth inhibitory concentration)
Method: as §1, §2, §3

Row | SMILES | MIC (P. aeruginosa AKR17) [µg/mL] | MIC (S. marcescens No. 16-2) [µg/mL] | MIC (P. mirabilis IFO 3849) [µg/mL] | MIC (M. morganii IFO 3848) [µg/mL] | MIC (P. vulugaris OX-19) [µg/mL] | MIC (S. aureus 167) [µg/mL] | MIC (E. cloacae Nek39) [µg/mL] | MIC (C. freundii ATCC 8090) [µg/mL] | MIC (A. faecalis ATCC 3750) [µg/mL] | MIC (E. cloacae ATCC 13407) [µg/mL] | MIC (M. luteus ATCC 9341) [µg/mL] | MIC (A. calcoaceticos T59) [µg/mL] | MIC50 (clinically isolated MRSA) [µg/mL] | MIC90 (clinically isolated MRSA) [µg/mL] | MIC (B. subtilis ATCC 6633) [µg/mL] | MIC (E. coli CSH2(RK1)) [µg/mL] | MIC (K. pneuminiae IFO 3317) [µg/mL] | MIC (S. aureus 209p JC-1) [µg/mL] | MIC (S. aureus 195) [µg/mL] | MIC (E. coli JC-2) [µg/mL] | also measured
1 | NC(=O)c1cc[n+](C/C=C/C2=C(C(=O)[O-])N3C(=O)[C@@H](NC(=O)/C(=N\O)c4csc(N)n4)[C@H]3SC2)cc1 [Compound 19, 7β-[2-(2-aminothiazol-4-yl)-2-syn-hydroxyiminoacetamido]-3-[(E)-3-(4-carbamoylpyridinio)-1-propenyl]-3-cephem-4-carboxylate] | > 100 | 12.5 (≈ 23.6 µM) | 0.2 (≈ 0.378 µM) | 0.05 (≈ 0.0944 µM) | 0.1 (≈ 0.189 µM) | 100 (≈ 189 µM) | 12.5 (≈ 23.6 µM) | 0.05 (≈ 0.0944 µM) | 1.56 (≈ 2.95 µM) | 0.39 (≈ 0.736 µM) | 0.05 (≈ 0.0944 µM) | 3.13 (≈ 5.91 µM) | 2.92 (≈ 5.51 µM) | 17.4 (≈ 32.8 µM) | 0.2 (≈ 0.378 µM) | 0.2 (≈ 0.378 µM) | 0.05 (≈ 0.0944 µM) | 0.1 (≈ 0.189 µM) | 3.13 (≈ 5.91 µM) | 0.1 (≈ 0.189 µM) | MIC (S. marcescens IAM 1184): 0.1 µg/mL (≈ 0.189 µM); MIC (S. aureus Smith): 0.2 µg/mL (≈ 0.378 µM); MIC (E. coli CSH2(RE45)): 0.1 µg/mL (≈ 0.189 µM); MIC (P. aeruginosa NCTC 10490): 1.56 µg/mL (≈ 2.95 µM); MIC (K. pneuminiae No. 42): 0.1 µg/mL (≈ 0.189 µM); MIC (S. epidemidis IAM 1296): 0.05 µg/mL (≈ 0.0944 µM); MIC (P. cepacia CN 9113): > 100 µg/mL
2 | NC(=O)c1ccc[n+](C/C=C/C2=C(C(=O)[O-])N3C(=O)[C@@H](NC(=O)/C(=N\O)c4csc(N)n4)[C@H]3SC2)c1 [Compound 18, 7β-[2-(2-aminothiazol-4-yl)-2-syn-hydroxyiminoacetamido]-3-[(E)-3-(3-carbamoylpyridinio)-1-propenyl]-3-cephem-4-carboxylate] | > 100 | 12.5 (≈ 23.6 µM) | 0.1 (≈ 0.189 µM) | 0.05 (≈ 0.0944 µM) | 0.1 (≈ 0.189 µM) | 50 (≈ 94.4 µM) | 6.25 (≈ 11.8 µM) | 0.05 (≈ 0.0944 µM) | 0.78 (≈ 1.47 µM) | 0.1 (≈ 0.189 µM) | 0.05 (≈ 0.0944 µM) | 3.13 (≈ 5.91 µM) | 2.63 (≈ 4.97 µM) | 22.2 (≈ 41.9 µM) | 0.1 (≈ 0.189 µM) | 0.1 (≈ 0.189 µM) | 0.05 (≈ 0.0944 µM) | 0.1 (≈ 0.189 µM) | 3.13 (≈ 5.91 µM) | 0.05 (≈ 0.0944 µM) | MIC (S. marcescens IAM 1184): 0.05 µg/mL (≈ 0.0944 µM); MIC (S. aureus Smith): 0.1 µg/mL (≈ 0.189 µM); MIC (E. coli CSH2(RE45)): 0.05 µg/mL (≈ 0.0944 µM); MIC (P. aeruginosa NCTC 10490): 1.56 µg/mL (≈ 2.95 µM); MIC (K. pneuminiae No. 42): 0.1 µg/mL (≈ 0.189 µM); MIC (S. epidemidis IAM 1296): 0.05 µg/mL (≈ 0.0944 µM); MIC (P. cepacia CN 9113): > 100 µg/mL
